In patent publication US12268727B2, “Bioactive polypeptides for improvements in plant protection, growth and productivity” (priority 2017, dated 2025):
Several values for one entry are separate records, joined by “and”; a condition that tells them apart may be missing. Identical values can stand only once. Like-named read-outs stand apart in the source and are kept apart here.

Assays:
[1] = tested on: soybean; experiment: Foliar application to soybean, field yield trials; assay type: in vivo; conditions: foliar at R2, AG2836, 7 US Midwest locations
[2] = tested on: peppers (Capsicum); experiment: Foliar application to pepper, yield; assay type: in vivo, pepper (Capsicum); conditions: for increase in average fruit weight per plant vs surfactant only: Jalapeno, pre-bloom; for combined yield average increase, RK and HHW varieties: first flower
Procedure: Foliar treatments of Bt.4Q7 Flg22 and Ec.Flg22 bioactive priming polypeptides were applied using small scale plots designed to simulate commercial growing conditions for peppers (Capsicum). Two varieties of pepper: Red Knight (RK) and Hungarian Hot Wax (HHW) were grown from 6-week old transplants in raised beds covered with black plastic mulch that had good water-holding characteristics and a pH of 5.8-6.6. Plants were grown using drip irrigation and fertilizer applied following grower guidelines throughout the growing season to ensure optimum plant growth and yields. Small raised bed plots were designed to simulate the planting densities used by commercial growers that generally plant approximately 10,000-14,000 plants per acre in double rows 14-18 inches (35.6 to 46 cm) apart on plastic mulched beds with 16-24 inches (40.6 to 61 cm) between plants in the row and with the beds spaced 5.0-6.5 feet ([…]) apart from their centers. A single row of peppers also can be planted on each bed (5,000-6,500 plants per acre or 12,355-16,062 plants per hectare).
Effects of the foliar applications on pepper yield were determined for two separate harvests using a once over harvest approach and normalized to the yield of the control plants. The average percentage change in yield for each treatment over the yield for the control plants is reported as pounds/acre (lbs/Ac) in Table 29.
Foliar treatment of Gm.RHPP (SEQ ID NO: 600) was applied as an exogenous spray at the first-bloom stage to increase yield in two pepper varieties. Foliar treatment of Gm.RHPP was applied using small scale plots designed to simulate commercial growing conditions for peppers (Capsicum) as described in Example 13. Foliar applications with the Gm.RHPP bioactive priming polypeptide were applied at the first flower stage, on two varieties of pepper, Red Knight (RK) and Hungarian Hot Wax (HHW). […] Effects of the foliar applications on pepper yield were determined for two separate harvests using a once over harvest approach and normalized to the yield of the control plants. The average percentage change in yield over the yield for the control plants is reported in Table 42, as the percent change per total weight (lbs/Ac) of peppers harvested. Average percent change in yield is reported for the 2 replicate harvests (trials) for the RK and HHW pepper varieties and then as a combined average for both varieties.
Small-scale plots were designed to simulate commercial growing conditions for jalapeno peppers. Peppers were grown for 12-weeks in a controlled growth room and then transplanted outside in 2 raised beds covered with black plastic mulch that had good water-holding characteristics and in soil having a pH of 5.8-6.6. Jalapeno pepper plants were spaced 14-16 inches (38 cm) apart with 16-24 inches (50 cm) between plants containing approximately 25 plants per row bed. Plants were grown using drip irrigation and fertilizer applied following grower guidelines throughout the growing season to provide optimum conditions for plant growth. The raised bed plots were designed to simulate the planting densities used by commercial growers that generally plant approximately plants per acre (5,000-6,500 plants per acre or 12,355-16,062 plants per hectare) in double rows 35.6-45.7 cm apart with the beds spaced 5.0-6.5 feet (1.52-1.98 meters) apart from their centers (Orzolek et al., “Agricultural Alternatives: Pepper Production.” University Park: Penn State Extension, 2010).

[3] = tested on: soybean; experiment: Soybean yield in trials infected with Phakopsora pachyrhizi and Cercospora kikuchii, Paraguay; assay type: in vivo; conditions: for yield increase vs untreated control: FOX Fungicide where combined
Source text: Beginning at the R1 stage of development, soybean plants received two foliar applications of the compositions described in Table 90 with an interval of 13-14 days between spray applications. Foliar treatments were applied to a single soy variety (which one? Same at all 3 sites) at the three sites, with 4 replicated plots (3×10 meters, 30 m2; with minimum of 6 rows per treatment). Disease assessments for trials that were naturally infected were scored for the severity of infection (0-100% of foliage affected) were scored for 10 plants within each plot for both Asian soybean rust caused by Phakopsora pachyrhizi and Cercospora leaf blight of soybean caused by Cercospora kikuchii at the R4-R5 stage of soy development (4-15 days after second foliar application) with guidance from Godoy et al (1997; Journal of plant diseases and protection 104:336-345). Percent phytotoxicity (0-100% of foliage affected) was also scored at the R4-R5 stage of soy development. Severity of infection and phytotoxicity were averaged across all four replicates per site (Total=12 replicates, 3 sites with 4 replicates each). Standard deviation for each treatment between the three sites was calculated.

[4] = tested on: Phakopsora pachyrhizi; experiment: Asian soybean rust severity and defoliation, field trials in Paraguay; assay type: in vivo; conditions: for defoliation: Yatytay site; for less Asian soybean rust leaf area damage than untreated control: two foliar applications from R1, 150 and 300 mL/Ha
[5] = tested on: corn; assay type: in vivo; conditions: for yield advantage: third study, 10-11 sites
[6] = 1 Fl. oz/Ac, foliar at first flower
[7] = 20 Fl. oz/Ac, foliar at first flower
[8] = Bt.4Q7Flg22 2 Fl. oz/Ac, Gm.RHPP 3.2 Fl. oz/Ac
[9] = combined average of two corn hybrids, two years
[10] = foliar 0.33 Fl. oz/Ac, V5-V8, first year trials, 10 locations
[11] = foliar 0.33 Fl. oz/Ac, V8 corn Dekalb 5064, second year trials
[12] = foliar at V5, 2 hybrids, 2 IL locations with drought-like conditions, 16.7 μM, 4.0 Fl. oz/Ac
[13] = foliar at V5, 2 hybrids, 2 IL locations with drought-like conditions, 16.7 μM, 48.0 Fl. oz/Ac
[14] = Jalapeno pepper, foliar at early bloom, 100 μM, 3.2 fl oz/Ac
[15] = foliar 1 Fl. oz/Ac at first flower, vs water control, 2 harvests
[16] = V5 corn, 8.0 Fl. oz/Ac, 6 locations combined
[17] = foliar at V5, 100 μM, 8.0 Fl. oz/Ac, 6 US Midwest locations

Substance: Bt.4Q7Flg22: Flg22 polypeptide (22 amino acids) from flagellin of Bacillus thuringiensis strain 4Q7 (DRLSSGKRINSASDDAAGLAIA; listed as Bacillus thuringiensis)
- Average Total Yield Bu/Ac Variety 1 ([1]; use rate 0.33 Fl. oz/Ac): 60.33 Bu/Ac
- Average Total Yield Bu/Ac Variety 1 ([1]; use rate 4.0 Fl. oz/Ac): 57.61 Bu/Ac
- Average Total Yield Bu/Ac Variety 1 ([1]; use rate 8.0 Fl. oz/Ac): 59.05 Bu/Ac
- Avg. Percent Change Yield Total Weight (lbs/Ac) (Hungarian Hot Wax) 2 Replicate Trials [2, 6]: +77%
- Avg. Percent Change Yield Total Weight (lbs/Ac) Red Knight 2 Replicate Trials [2, 6]: +29%
- Combined Avg. Percent Change Yield Total Number (lbs/Ac) RK and HHW [2, 6]: +53%
- Avg. Percent Change Yield Total Weight (lbs/Ac) (Hungarian Hot Wax) 2 Replicate Trials [2, 7]: +42%
- Avg. Percent Change Yield Total Weight (lbs/Ac) Red Knight 2 Replicate Trials [2, 7]: +8%
- Combined Avg. Percent Change Yield Total Number (lbs/Ac) RK and HHW [2, 7]: +25%
- increase in average fruit weight per plant vs surfactant only ([2]; 4 Fl. oz/Ac): 40%
- increase in average fruit weight per plant vs surfactant only [2, 8]: 49%
- combined yield average increase, RK and HHW varieties ([2]; high rate 20 Fl. oz/Ac): 25%
- combined yield average increase, RK and HHW varieties ([2]; low rate 1 Fl. oz/Ac): 53%
- yield increase over control, HHW variety ([2]; high rate 20 Fl. oz/Ac): 42%
- yield increase over control, HHW variety ([2]; low rate 1 Fl. oz/Ac): 77% and 72%
- increase in yield (relative) ([3]; Bt.4Q7Flg22 300 mL/Ha, FOX Fungicide at label rate): 36.1%
- yield increase vs untreated control ([3]; polypeptide 150 mL/Ha): 342.2 kg/Ha
- yield increase vs untreated control ([3]; polypeptide 300 mL/Ha): 427.2 kg/Ha
- defoliation ([4]; R7, 150 mL/Ha): 70%
- defoliation ([4]; R7, 300 mL/Ha): 60%
- less Asian soybean rust leaf area damage than untreated control [4]: 12.4-13.0%
- average yield change vs STRATEGO YLD fungicide alone ([5]; V5 corn, 2 hybrids, 2 locations Iowa, applied with STRATEGO YLD 4.0 Fl. oz/Ac): 5.50 Bu/Ac
- increase in yield vs base seed treatment + surfactant control ([5]; V5 corn, 3 DEKALB hybrids, 6-8 locations, 4.0 Fl. oz/Ac): 1.14 Bu/Ac
- yield increase over non-treated control ([5]; V8 corn Dekalb 5064, 6 locations, Bt.4Q7Flg22 0.33 Fl. oz/Ac, STRATEGO YLD 4.0 Fl. oz/Ac): 4.84 Bu/Ac
- 2-year average yield increase [5, 9]: 8.0 Bu/Ac
- win rate, multiple year [5, 9]: 86%
- yield increase over surfactant control ([5]; drought-like conditions, 2 hybrids, 2 IL locations, 16.7 μM at 4.0 Fl. oz/Ac, cellobiose 320 mM where combined): 3.70 Bu/Ac
- yield increase over control ([5]; drought-like conditions, V5-V7, highest use rate): ~27 Bu/Ac
- average yield increase vs non-treated control [5, 10]: 11.60 Bu/Ac and > 11 Bu/Ac
- win rate [5, 10]: 90%
- average yield increase over control [5, 11]: 4.8 Bu/Ac and ~5 Bu/Ac
- win rate [5, 11]: 83%
- Average Change in Yield (Bu/Ac) compared to Surfactant control [5, 12]: +3.70 Bu/Ac
- Average Yield Bu/Ac [5, 12]: 96.46 Bu/Ac
- Average Change in Yield (Bu/Ac) compared to Surfactant control [5, 13]: +26.61 Bu/Ac
- Average Yield Bu/Ac [5, 13]: 119.37 Bu/Ac
- Average Total Yield Bu/Ac (6 locations) ([5]; foliar at V8, corn hybrid Dekalb 5064, Bt.4Q7Flg22 0.33 Fl. oz/Ac, STRATEGO YLD 4.0 Fl. oz/Ac): 192.21 Bu/Ac
- Average Bu/Ac Increase compared to Control ([5]; foliar at V8, corn hybrid Dekalb 5064, Bt.4Q7Flg22 0.33 Fl. oz/Ac, STRATEGO YLD 4.0 Fl. oz/Ac, 6 locations): +4.84 Bu/Ac
- yield advantage ([5]; V5-V8, 0.33 Fl. oz/Ac (25 nM)): 5.75 Bu/Ac
- yield advantage ([5]; V5-V8, 4 Fl. oz/Ac (300 nM)): 3.77 Bu/Ac
- yield advantage ([5]; V5-V8, 8 Fl. oz/Ac (600 nM)): 5.05 Bu/Ac

Substance: GGIRAAPTGNER (Glycine max) [RHPP, Root Hair Promoting Peptide from Glycine max]
- Average Total Yield Bu/Ac Variety 1 ([1]; use rate 0.33 Fl. oz/Ac): 59.15 Bu/Ac
- increase in yield vs control, combined average of both varieties ([2]; 1 Fl. oz/Ac): 67%
- increase in yield vs control ([2]; 1 Fl. oz/Ac, HHW peppers): 46%
- increase in yield vs control ([2]; 1 Fl. oz/Ac, RK peppers): 87%
- Average Fruit Weight (grams) per Plant [2, 14]: 156.6 grams
- Percentage Change in Fruit Weight Compared to Surfactant Control [2, 14]: +27%
- increase in average fruit weight per plant vs surfactant only [2, 8]: 27%
- Avg. Percent Change Yield Total Weight (lbs/Ac) Hungarian Hot Wax [2, 15]: +46%
- Avg. Percent Change Yield Total Weight (lbs/Ac) Red Knight [2, 15]: +87%
- Combined Avg. Percent Change Yield Total Number (lbs/Ac) RK and HHW ([2]; foliar 1 Fl. oz/Ac at first flower, vs water control, both varieties): +67%
- yield increase vs untreated control ([3]; polypeptide 150 mL/Ha): 294.2 kg/Ha
- yield increase vs untreated control ([3]; polypeptide 300 mL/Ha): 506.8 kg/Ha
- defoliation ([4]; R7, 150 mL/Ha): 96%
- defoliation ([4]; R7, 300 mL/Ha): 70%
- less Asian soybean rust leaf area damage than untreated control [4]: 10.5-11.3%
- average yield [5, 16]: more than 209 Bu/Ac
- yield increase vs surfactant control [5, 16]: 3.52 Bu/Ac
- Average Change in Bu/Ac compared to surfactant only control [5, 17]: (+3.52; Bu/Ac
- Average Yield Bu/Ac [5, 17]: 209.67 Bu/Ac
- win rate ([5]; foliar at V5, 100 μM, 8.0 Fl. oz/Ac, vs surfactant only control): 64%
